Tests used:
[1] = tested on: MRC-5 cells; experiment: Longevity experiment, MRC-5 cells grown continuously in medium supplemented with carnosine; assay type: cell-based, human; conditions: for longevity: continuous, controls ceased growth at 57 and 61 PDs
Experimental: (§1) Cells were grown in Dulbecco's modification of Eagles' Minimal Essential Medium, with 10% fetal calf serum. When cells became confluent and ceased division, they were harvested with trypsin - versene, and dispersed to form a suspension of single cells which was counted with a Coulter Counter. Depending on the cell yield the culture was split in a ratio of 1:2, 1:4, or 1:8. These split ratios correspond approximately to one, two or three cell population doublings when the new cultures become confluent. The exact number of population doublings is calculated from the cell yield at each sub-culture.
MRC-5 is a very well characterised fibroblast strain derived from foetal lung tissue. Early passage cultures were obtained from the National Institute for Biological Standards and Control, South Mimms, Herts, U.K. Longevity experiments were set up using normal medium and medium supplemented with 20 and 30mM carnosine (medium was the same as for RR cells above). […] The control cells became senescent at the expected time, namely after about 50 - 55 PDs, and they ceased growth at 57 and 61 PDs. […] It should be noted that the PD level is a logarithmic measure of growth, so an increase of 10 PDs represents an increase in cell mass of 2^10, or x 1,000.

[2] = tested on: MRC-5 cells; experiment: Transfer of senescent MRC-5 cells from normal medium to carnosine medium at PD level 55; assay type: cell-based, human
Experimental: as §1
Remarkably, these cells are continuing to grow after 400 days (Figure 8), whereas cells grown continuously in carnosine died out after 139 days. Thus it appears that transfer of senescent cells to carnosine can reverse the senescent phenotype and allow extended growth of cells with a near normal morphology (Figures 10, 11 and 12).

[3] = tested on: RR cells (human foreskin fibroblasts); experiment: Growth and lifespan of RR cells passaged in medium with carnosine; assay type: cell-based; conditions: for fibroblast morphology: after many population doublings; for time still growing: continuous
Experimental: as §1
Initially, human foreskin fibroblasts were obtained from Dr Roger Reddel (Children's Medical Research Foundation) at passage 5, flasks were set up with differing concentrations of carnosine (10mM, 20mM, 30mM and 50mM) together with control cultures. Each of the cultures were passaged in the same medium.

[4] = transferred at PD level 55 to 20mM carnosine
[5] = transferred at PD level 55 to 30mM carnosine

Question: `NCCC(=O)N[C@@H](Cc1c[nH]cn1)C(=O)O` [carnosine, β-alanyl-L-histidine] was tested. Which “PD level of cells growing continuously” value ([1]; 20mM carnosine (Figure 7)) did it give?
Answer: 67 PD

Question: What about the “growth rate in the initial stage” value ([1]; 20mM carnosine versus normal medium) of the same compound?
Answer: little difference in growth rate

Question: What about the longevity ([1]; 20mM carnosine) of the same compound?
Answer: very significantly increased longevity

Question: And the “growth rate in the initial stage” value ([1]; 30mM carnosine versus normal medium)?
Answer: little difference in growth rate

Question: And the longevity ([1]; 30mM carnosine)?
Answer: very significantly increased longevity

Question: What about the “number of cells per flask” value ([1]; as the end of the culture lifespan approaches) of the same compound?
Answer: significantly increases the number of cells per flask

Question: And the “morphological features of senescence” value ([1]; carnosine medium, Figure 7 compared with Figure 6)?
Answer: delayed the normal morphological features of senescence

Question: What about the “time until cells died out” value ([1]; cells grown continuously in carnosine) of the same compound?
Answer: 139 days

Question: And the “PDs reached after transfer” value ([2]; 20mM carnosine, 146 days after transfer (Figure 11))?
Answer: 64 PDs

Question: And the “PDs reached after transfer” value ([2]; 30mM carnosine, 146 days after transfer (Figure 12))?
Answer: 63 PDs

Question: What about the “effect in increasing cell yield” value ([2]; cells transferred from normal medium to 30mM carnosine medium (Figure 9)) of the same compound?
Answer: particularly striking

Question: And the phenotype after transfer [2, 4]?
Answer: continued to grow slowly, but with a rejuvenated phenotype

Question: What about the “time continuing to grow” value [2, 4] of the same compound?
Answer: > 400 days

Question: And the phenotype after transfer [2, 5]?
Answer: continued to grow slowly, but with a rejuvenated phenotype

Question: And the “time continuing to grow” value [2, 5]?
Answer: > 400 days

Question: And the growth rate ([3]; 10mM carnosine added to standard medium, versus control cultures)?
Answer: grew as rapidly as control cultures

Question: What about the growth rate ([3]; 20mM carnosine added to standard medium, versus control cultures) of the same compound?
Answer: grew as rapidly as control cultures

Question: What about the growth rate ([3]; 30mM carnosine) of the same compound?
Answer: some reduction in growth rate

Question: And the fibroblast morphology ([3]; 30mM carnosine)?
Answer: retained their characteristic fibroblast morphology

Question: What about the time still growing ([3]; 30mM carnosine) of the same compound?
Answer: > 500 days

Question: What about the growth rate ([3]; 50mM carnosine) of the same compound?
Answer: a great reduction

Question: What about the fibroblast morphology ([3]; 50mM carnosine) of the same compound?
Answer: retained their characteristic fibroblast morphology

Question: And the time still growing ([3]; 50mM carnosine)?
Answer: > 500 days
